# Source: PMC5152921, “Evolutionary and Functional Diversification of the Vitamin D Receptor-Lithocholic Acid Partnership” (PLoS ONE, 2016)
# Assays:
# Test in all cases: Transient transactivation assay (XREM-Luc, HepG2)
# Format in all cases: cell-based
# Details in all cases: 100 μM LCA
# Zebrafish VDRα = target: T1, Zebrafish VDRα (Danio rerio, UniProt Q9PTN2)
# T1 construct: 89.7 ng/well of full-length pSG5-VDR was co-transfected; expressed in transfected cells; host or cells: HepG2
# T1 sequence (Q9PTN2 1-453): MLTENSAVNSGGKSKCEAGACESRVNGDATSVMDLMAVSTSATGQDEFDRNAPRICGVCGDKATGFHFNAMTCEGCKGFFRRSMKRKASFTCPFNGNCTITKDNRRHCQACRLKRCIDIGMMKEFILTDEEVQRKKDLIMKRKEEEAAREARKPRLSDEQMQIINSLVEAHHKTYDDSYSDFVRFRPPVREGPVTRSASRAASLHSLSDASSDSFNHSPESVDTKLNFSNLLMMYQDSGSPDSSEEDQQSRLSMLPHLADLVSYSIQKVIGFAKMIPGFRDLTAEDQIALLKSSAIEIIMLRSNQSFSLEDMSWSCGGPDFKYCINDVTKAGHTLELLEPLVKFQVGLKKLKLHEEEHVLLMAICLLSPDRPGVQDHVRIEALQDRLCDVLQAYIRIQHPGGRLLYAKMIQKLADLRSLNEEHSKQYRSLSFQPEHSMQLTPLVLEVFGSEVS
# Protocol: (§1) HepG2 cells (American Type Culture Collection #HB-8065) were cultured in T75 flasks with vented caps (Corning Life Sciences, Corning, NY) using Minimum Essential Medium (MEM) with phenol red supplemented with 10% fetal bovine serum, 1 mM sodium pyruvate, and 1X MEM non-essential amino acids. Cells were maintained following standard protocols in a 5% CO2 incubator set at 37°C, and split when 80–90% confluent.
# (§2) For the transient transactivation assays, HepG2 cells were seeded in 96-well tissue culture plates at a density of 2.5x10^4 cells per well in complete phenol red-free MEM, and allowed to recover overnight. Transfections were performed the following day using Lipofectamine 2000 (Life Technologies, Grand Island, NY) as described previously. For functional comparisons, 89.7 ng/well of full-length pSG5-VDR was co-transfected with 19.2 ng/well human XREM-Luc reporter and 4.5 ng/well of pRL-CMV as an internal luciferase control. Coregulator studies included the addition of 18.3 ng/well of human coregulators (pCDNA-RXRWT, pCDNA-RXRAF2, pSG5-SRC1, pSG5-GRIP1 or pSG5-ACTR) where indicated. […] Controls include 120 nM 1,25D3 as a positive control, and ethanol as a vehicle control. Twenty-four hours post-exposure cells were tested for luciferase activity using the Dual-Glo Luciferase Assay System (Promega Corporation, Madison, WI) according to the manufacturer’s protocols. Luciferase data were first normalized to the pRL-CMV internal luciferase control. LCA-mediated VDR transactivation (fold activation) was calculated as the ratio of the VDR luciferase response relative to the empty vector control. To calculate the impact of coregulators on VDR transactivation, VDR response in the presence of coregulators was normalized to VDR alone. All experiments were repeated 3 times and conducted as groups of 4 replicate wells. VDR response in the absence of coregulators was analyzed using a 1-way ANOVA followed by Dunnett’s multiple comparisons test. To examine the effects of different coregulators on VDR activation, data were analyzed using a 2-way ANOVA followed by Bonferroni’s multiple comparisons test in GraphPad Prism (GraphPad Inc, San Diego, CA).
# Medaka VDRβ = target: T2, Medaka VDRβ (Oryzias latipes, UniProt B2CCA1)
# T2 sequence (B2CCA1 1-425): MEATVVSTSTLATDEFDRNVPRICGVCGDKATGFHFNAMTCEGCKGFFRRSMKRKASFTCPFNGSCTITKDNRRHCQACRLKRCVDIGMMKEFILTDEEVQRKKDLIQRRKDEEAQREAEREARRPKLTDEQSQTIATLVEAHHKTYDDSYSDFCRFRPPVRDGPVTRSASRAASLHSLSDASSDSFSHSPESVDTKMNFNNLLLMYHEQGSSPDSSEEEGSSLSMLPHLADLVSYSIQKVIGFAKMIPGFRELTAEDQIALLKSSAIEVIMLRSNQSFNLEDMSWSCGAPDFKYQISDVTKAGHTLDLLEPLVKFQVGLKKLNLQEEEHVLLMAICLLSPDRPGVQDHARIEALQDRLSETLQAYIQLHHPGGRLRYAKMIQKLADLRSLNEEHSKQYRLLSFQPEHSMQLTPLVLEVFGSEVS
# T2 sequence (P19793 1-462 partner): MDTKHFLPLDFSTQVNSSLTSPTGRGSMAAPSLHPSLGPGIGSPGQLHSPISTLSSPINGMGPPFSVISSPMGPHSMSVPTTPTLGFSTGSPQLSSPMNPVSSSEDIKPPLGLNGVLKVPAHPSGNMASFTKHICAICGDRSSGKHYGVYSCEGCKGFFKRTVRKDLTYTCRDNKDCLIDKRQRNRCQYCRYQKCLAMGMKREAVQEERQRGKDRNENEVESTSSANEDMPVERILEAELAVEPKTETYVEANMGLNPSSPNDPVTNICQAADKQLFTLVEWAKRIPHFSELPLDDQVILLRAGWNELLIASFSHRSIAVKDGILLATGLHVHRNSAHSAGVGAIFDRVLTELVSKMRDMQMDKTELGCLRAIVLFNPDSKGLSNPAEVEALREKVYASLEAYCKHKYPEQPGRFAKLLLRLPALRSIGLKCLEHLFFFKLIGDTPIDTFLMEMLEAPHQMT
# Protocol: as §1, §2
# Medaka VDRα = Medaka VDRα (Oryzias latipes, UniProt B2CCA0)
# Protocol: as §1, §2
# [1] = co-transfected human RXRWT, vs VDR alone
# [2] = compared to either coregulator individually
# Medaka VDRα, sequence (B2CCA0 entry or part of it, one chain of several): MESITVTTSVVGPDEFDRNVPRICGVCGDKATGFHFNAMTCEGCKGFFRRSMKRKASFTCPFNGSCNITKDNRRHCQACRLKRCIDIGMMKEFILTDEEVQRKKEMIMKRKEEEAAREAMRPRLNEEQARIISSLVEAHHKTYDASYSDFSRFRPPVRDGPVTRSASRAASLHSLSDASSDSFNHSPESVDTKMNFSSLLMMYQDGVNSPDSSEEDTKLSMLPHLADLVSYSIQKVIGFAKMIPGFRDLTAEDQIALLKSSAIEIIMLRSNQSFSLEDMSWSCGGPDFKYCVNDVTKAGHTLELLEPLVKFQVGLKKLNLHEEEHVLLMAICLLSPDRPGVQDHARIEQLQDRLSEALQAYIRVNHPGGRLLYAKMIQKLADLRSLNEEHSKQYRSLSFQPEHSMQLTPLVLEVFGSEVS
smiles,measurement,setting,value
"C[C@H](CCC(=O)O)[C@H]1CC[C@H]2[C@@H]3CC[C@@H]4C[C@H](O)CC[C@]4(C)[C@H]3CC[C@]12C [LCA, 5β-cholanic acid-3α-ol]",Effect of exogenous human RXRWT on VDR transactivation,Zebrafish VDRα; [1],significantly enhanced transactivation
same,Effect of RXRWT+SRC1 or RXRWT+GRIP1 on VDR transactivation,Zebrafish VDRα; [2],significantly enhanced VDR transactivation
same,Effect of exogenous human RXRWT on VDR transactivation,Medaka VDRβ; [1],significantly enhanced transactivation
same,Effect of RXRWT+SRC1 or RXRWT+GRIP1 on VDR transactivation,Medaka VDRβ; [2],significantly enhanced VDR transactivation
same,Effect of exogenous human RXRWT on VDR transactivation,Medaka VDRα; [1],significantly enhanced transactivation
same,Effect of RXRWT+SRC1 or RXRWT+GRIP1 on VDR transactivation,Medaka VDRα; [2],significantly enhanced VDR transactivation
